In patent US20110136751A1, “Use of Polyphenols in the Treatment of Cancer” (Green Molecular, priority 2009, published 2011):

Key:
[1] = cited from earlier work
[2] = system: Human melanoma (A375), breast cancer (MCF7), lung cancer (A549), and colon cancer (HT29) cell lines; assay: Cell cycle study (flow cytometry); format: cell-based; conditions: treated for 24 h; FIG. 9
Description: Cancer cells (0.2×10^6 cells/well) were seeded in six well-plates and, 24 h later, were treated for 24 h with different concentrations ([…]) of PTER or ReES. Cells were trypsinized and pelleted at 1000×g for 2 min. Cells were resuspended in PBS. Ethanol was added up to a final 70% conc. The DNA cellular content was analyzed by flow cytometry (10000 cell events were collected per sample). Results are expressed as % of total cells±SD (n=3).
The aim of this study was to determine whether pterostilbene causes cytotoxicity in human tumors at concentrations that are reliable under in vivo conditions; and, to identify which death-related molecular mechanisms may be activated by the compound. Human melanoma (A375), breast cancer (MCF7), lung cancer (A549), and colon cancer (HT29) cell lines were used in this set of experiments. Pterostilbene and resveratrol were used in a μM range, between 10 μM (below the IC50 for all cell lines) and 200 μM (an unachievable in vivo concentration). Cell cycle and apoptosis induction were determined by flow cytometry.
The effects of pterostilbene and resveratrol on cell cycle were tested. […] Both DNA synthesis and tubulin polymerization were seriously affected.

human tumor cells = assay: Autophagy activation (LC3-II, P62/SQSTM1, GFP-LC3); format: cell-based; conditions: at bioavailable concentrations
Source text: In addition, there are different molecular events associating pterostilbene with autophagy activation: a) an increase of LC3-II form, indicating the processing of LC3 protein to its lapidated form; and b) an increase in P62/SQSTM1 bands and GFP-LC3 punctuation, indicating P62 accumulation and translocation of LC3 to autophagic membranes, respectively. An acute loss of tubulin organization, indicating cell cycle arrest, was also detected by immunochemistry.

Compound | reduction in glomerular flow rate ([1]; 1400 mg QUER/m^2, the two affected patients, first 24 hours) [%] | tolerability ([1]; daily i.v. bolus doses of 100 mg QUER/m2, human patients) | renal toxicity ([1]; i.v. bolus of 1400 mg QUER/m^2 once weekly for three weeks) | cell cycle [2] | autophagy (human tumor cells)
O=c1c(O)c(-c2ccc(O)c(O)c2)oc2cc(O)cc(O)c12 [QUER, quercetin] | ~20 | well tolerated | two of ten patients | – | –
Oc1ccc(/C=C/c2cc(O)cc(O)c2)cc1 [RI, trans-3,5,4′-trihydroxystilbene, reference compound] | – | – | – | arrested in S phase | –
COc1cc(/C=C/c2ccc(O)cc2)cc(OC)c1 [t-PTER, trans-3,5-dimethoxy-4′-hydroxystilbene] | – | – | – | arrested in S phase | activates autophagy
